The compounds below were run against USP14 (Homo sapiens (Human), UniProt P54578) (assay: Usp14 inhibition assay (Example 57B, B-series compounds)). Settings: IC50 class; average value from a minimum of two experimental determinations.
Format: biochemical
Source text: Example 57B: Usp14 Inhibition Assay
The IC50 values in the Table below represent the average value from a minimum of two experimental determinations.

Chain of USP14 (P54578 whole entry, looked up): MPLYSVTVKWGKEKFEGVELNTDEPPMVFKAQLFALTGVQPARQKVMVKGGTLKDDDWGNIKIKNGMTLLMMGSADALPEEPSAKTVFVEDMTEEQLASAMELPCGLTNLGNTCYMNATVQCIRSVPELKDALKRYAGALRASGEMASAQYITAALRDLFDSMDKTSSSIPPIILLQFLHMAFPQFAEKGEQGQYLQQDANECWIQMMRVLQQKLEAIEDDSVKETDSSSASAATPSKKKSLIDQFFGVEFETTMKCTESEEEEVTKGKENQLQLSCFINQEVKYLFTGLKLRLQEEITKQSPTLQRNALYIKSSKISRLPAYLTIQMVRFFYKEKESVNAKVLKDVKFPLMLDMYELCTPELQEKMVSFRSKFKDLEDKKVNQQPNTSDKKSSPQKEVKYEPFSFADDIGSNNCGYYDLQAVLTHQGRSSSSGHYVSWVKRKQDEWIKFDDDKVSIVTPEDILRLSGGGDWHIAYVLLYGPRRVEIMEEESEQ

Cc1c(C(=O)CN2C3CCC2[C@@H](O)C3)cc(C[C@H]2C[C@H](C#N)C2)n1-c1ccc(C#N)cc1 (mixture of isomers) [Example 45B, (±)-4-(5-(((1r,3R)-3-Cyanocyclobutyl)methyl)-3-(2-((2R)-2-hydroxy-7-azabicyclo[2.2.1]heptan-7-yl)acetyl)-2-methyl-1H-pyrrol-1-yl)benzonitrile] and Cc1c(C(=O)CN2C3CCC2[C@@H](O)C3)cc(C#N)n1-c1ccc(C#N)cc1 (mixture of isomers) [Example 47B, (±)-1-(4-Cyanophenyl)-4-(2-((2R)-2-hydroxy-7-azabicyclo[2.2.1]heptan-7-yl)acetyl)-5-methyl-1H-pyrrole-2-carbonitrile] cannot be ordered by IC50: less than 50 nM for the first, less than 50 nM for the second.

Cc1c(C(=O)CN2C3CCC2[C@@H](O)C3)c(Cl)c(/C=C/CC(C)(C)C#N)n1-c1ccc(C#N)cc1 (mixture of isomers) [Example 46B, (±)-4-(3-Chloro-2-((E)-4-cyano-4-methylpent-1-en-1-yl)-4-(2-((2R)-2-hydroxy-7-azabicyclo[2.2.1]heptan-7-yl)acetyl)-5-methyl-1H-pyrrol-1-yl)benzonitrile] and Cc1c(Cl)c(C(=O)CN2C3CCC2[C@@H](O)C3)c(C)n1-c1ccc(C#N)cc1 (mixture of isomers) [Example 77B, (±)-4-(3-Chloro-4-(2-((2R)-2-hydroxy-7-azabicyclo[2.2.1]heptan-7-yl)acetyl)-2,5-dimethyl-1H-pyrrol-1-yl)benzonitrile] fall in the same range of IC50: 50 to 500 nM for the first, 50 to 500 nM for the second.

First: Cc1c(C(=O)CN2C3CCC2[C@@H](O)C3)cc(CC[Si](C)(C)C)n1-c1ccc(C#N)cc1 (mixture of isomers) [Example 50B, (±)-4-(3-(2-((2R)-2-Hydroxy-7-azabicyclo[2.2.1]heptan-7-yl)acetyl)-2-methyl-5-(2-(trimethylsilyl)ethyl)-1H-pyrrol-1-yl)benzonitrile]
Second: Cc1c(C(=O)CN2[C@@H]3CC[C@H]2[C@@H](O)C3)cc(CCC2(C)COC2)n1-c1ccc(C#N)cc1 (racemic) [Example 55B, (±)-4-(3-(2-((1R,2R,4S)-2-Hydroxy-7-azabicyclo[2.2.1]heptan-7-yl)acetyl)-2-methyl-5-(2-(3-methyloxetan-3-yl)ethyl)-1H-pyrrol-1-yl)benzonitrile]
The IC50 of the first is higher: 50 to 500 nM for the first, less than 50 nM for the second.

Cc1c(C(=O)CN2C3CCC2[C@@H](O)C3)cc(CCCC2CC(C)(C)OC2=O)n1-c1ccc(C#N)cc1 (mixture of isomers) [Example 51B, (±)-4-(5-(3-(5,5-Dimethyl-2-oxotetrahydrofuran-3-yl)propyl)-3-(2-((1R,2R,4S)-2-hydroxy-7-azabicyclo[2.2.1]heptan-7-yl)acetyl)-2-methyl-1H-pyrrol-1-yl)benzonitrile] and Cc1c(C(=O)CN2C3CCC2[C@@H](O)C3)cc(/C=C/CC2CC(C)(C)OC2=O)n1-c1ccc(C#N)cc1 (mixture of isomers) [Example 52B, (±)-4-(5-((E)-3-(5,5-Dimethyl-2-oxotetrahydrofuran-3-yl)prop-1-en-1-yl)-3-(2-((1S,2S,4R)-2-hydroxy-7-azabicyclo[2.2.1]heptan-7-yl)acetyl)-2-methyl-1H-pyrrol-1-yl)benzonitrile] cannot be ordered by IC50: less than 50 nM for the first, less than 50 nM for the second.

First: Cc1c(C(=O)CN2[C@@H]3CC[C@H]2[C@@H](C)C3)cc(CC2COC2)n1-c1ccc(C#N)cc1 (racemic) [Example 53B, (±)-4-(2-Methyl-3-(2-((1R,2R,4S)-2-methyl-7-azabicyclo[2.2.1]heptan-7-yl)acetyl)-5-(oxetan-3-ylmethyl)-1H-pyrrol-1-yl)benzonitrile]
Second: Cc1c(C(=O)CN2[C@H]3CC[C@@H]2[C@@H](C)C3)cc(CC2COC2)n1-c1ccc(C#N)cc1 (racemic) [Example 56B, (±)-4-(2-Methyl-3-(2-((1R,2S,4S)-2-methyl-7-azabicyclo[2.2.1]heptan-7-yl)acetyl)-5-(oxetan-3-ylmethyl)-1H-pyrrol-1-yl)benzonitrile]
The IC50 of the first is lower: less than 50 nM for the first, 50 to 500 nM for the second. The first is the more potent here.

Cc1c(C(=O)CN2C3CCC2[C@@H](O)C3)cc(C#CC2COC2)n1-c1ccc(C#N)cc1 (mixture of isomers) [Example 57B, (±)-4-(3-(2-((2R)-2-Hydroxy-7-azabicyclo[2.2.1]heptan-7-yl)acetyl)-2-methyl-5-(oxetan-3-ylethynyl)-1H-pyrrol-1-yl)benzonitrile] and Cc1c(C(=O)CN2C3CCC2[C@@H](O)C3)cc(C2CC2)n1-c1ccc(C#N)cc1 (mixture of isomers) [Example 98B, (±)-4-(5-Cyclopropyl-3-(2-((2R)-2-hydroxy-7-azabicyclo[2.2.1]heptan-7-yl)acetyl)-2-methyl-1H-pyrrol-1-yl)benzonitrile] fall in the same range of IC50: 50 to 500 nM for the first, 50 to 500 nM for the second.

Cc1cc(C(=O)CN2C3CCC2[C@@H](O)C3)c(C)n1-c1ccc(C#N)cc1 (mixture of isomers) [Example 64B, (±)-4-(3-(2-((2R)-2-Hydroxy-7-azabicyclo[2.2.1]heptan-7-yl)acetyl)-2,5-dimethyl-1H-pyrrol-1-yl)benzonitrile] and Cc1cc(C(=O)CN2[C@H]3CCC[C@@H]2[C@H](O)C3)c(C)n1-c1ccc(C#N)cc1 (racemic) [Example 82B, (±)-4-(3-(2-((1S,5R,6R)-6-Hydroxy-8-azabicyclo[3.2.1]octan-8-yl)acetyl)-2,5-dimethyl-1H-pyrrol-1-yl)benzonitrile] fall in the same range of IC50: 50 to 500 nM for the first, 50 to 500 nM for the second.

CO[C@H]1C[C@H]2CC[C@@H]1N2CC(=O)c1cc(C)n(-c2ccc(C#N)cc2)c1C (racemic) [Example 70B, (±)-4-(3-(2-((1R,2R,4S)-2-Methoxy-7-azabicyclo[2.2.1]heptan-7-yl)acetyl)-2,5-dimethyl-1H-pyrrol-1-yl)benzonitrile] and Cc1cc(C(=O)CN2[C@H]3CCC[C@@H]2[C@@H](O)C3)c(C)n1-c1ccc(C#N)cc1 (racemic) [Example 83B, (±)-4-(3-(2-((1S,5R,6S)-6-Hydroxy-8-azabicyclo[3.2.1]octan-8-yl)acetyl)-2,5-dimethyl-1H-pyrrol-1-yl)benzonitrile] fall in the same range of IC50: 50 to 500 nM for the first, 50 to 500 nM for the second.

Cc1cc(C(=O)CN2[C@@H]3CC[C@H]2[C@@](C)(O)C3)c(C)n1-c1ccc(C#N)cc1 (racemic) [Example 71B, (±)-4-(3-(2-((1R,2R,4S)-2-Hydroxy-2-methyl-7-azabicyclo[2.2.1]heptan-7-yl)acetyl)-2,5-dimethyl-1H-pyrrol-1-yl)benzonitrile] and Cc1cc(C(=O)CN2[C@@H]3CC[C@H]2[C@](O)(C(C)(C)C)C3)c(C)n1-c1ccc(C#N)cc1 (racemic) [Example 72B, (±)-4-(3-(2-((1R,2S,4S)-2-(tert-Butyl)-2-hydroxy-7-azabicyclo[2.2.1]heptan-7-yl)acetyl)-2,5-dimethyl-1H-pyrrol-1-yl)benzonitrile] cannot be ordered by IC50: greater than 500 nM for the first, greater than 500 nM for the second.

Cc1cc(C(=O)CN2[C@@H]3CC[C@H]2[C@](O)(C(F)(F)F)C3)c(C)n1-c1ccc(C#N)cc1 (racemic) [Example 73B, (±)-4-(3-(2-((1R,2R,4S)-2-Hydroxy-2-(trifluoromethyl)-7-azabicyclo[2.2.1]heptan-7-yl)acetyl)-2,5-dimethyl-1H-pyrrol-1-yl)benzonitrile] and Cc1c(C(=O)CN2C3CCC2[C@@H](O)C3)c(C(F)(F)F)c(C)n1-c1ccc(C#N)cc1 (mixture of isomers) [Example 79B, (±)-4-(3-(2-((2R)-2-Hydroxy-7-azabicyclo[2.2.1]heptan-7-yl)acetyl)-2,5-dimethyl-4-(trifluoromethyl)-1H-pyrrol-1-yl)benzonitrile] cannot be ordered by IC50: greater than 500 nM for the first, greater than 500 nM for the second.

Cc1c(C(=O)CN2C3CCC2[C@@H](O)C3)c(C)n(-c2ccc(C#N)cc2)c1C (mixture of isomers) [Example 76B, (±)-4-(3-(2-((2R)-2-Hydroxy-7-azabicyclo[2.2.1]heptan-7-yl)acetyl)-2,4,5-trimethyl-1H-pyrrol-1-yl)benzonitrile] and Cc1c(F)c(C(=O)CN2C3CCC2[C@@H](O)C3)c(C)n1-c1ccc(C#N)cc1 (mixture of isomers) [Example 78B, (±)-4-(3-Fluoro-4-(2-((2R)-2-hydroxy-7-azabicyclo[2.2.1]heptan-7-yl)acetyl)-2,5-dimethyl-1H-pyrrol-1-yl)benzonitrile] fall in the same range of IC50: 50 to 500 nM for the first, 50 to 500 nM for the second.

First: Cc1cc(C(=O)CN2C3CCC2[C@@H](O)C3)c(C)n1-c1ccc(C#N)c(F)c1 (mixture of isomers) [Example 90B, (±)-2-Fluoro-4-(3-(2-((2R)-2-hydroxy-7-azabicyclo[2.2.1]heptan-7-yl)acetyl)-2,5-dimethyl-1H-pyrrol-1-yl)benzonitrile]
Second: Cc1cc(C(=O)CN2C3CCC2[C@@H](O)C3)c(C)n1-c1ccc(C#N)cc1F (mixture of isomers) [Example 91B, (±)-3-Fluoro-4-(3-(2-((2R)-2-hydroxy-7-azabicyclo[2.2.1]heptan-7-yl)acetyl)-2,5-dimethyl-1H-pyrrol-1-yl)benzonitrile]
The IC50 of the first is lower: less than 50 nM for the first, 50 to 500 nM for the second.

Cc1cc(C(=O)CN2C3CC4CC2C(C3)O4)c(C)n1-c1ccc(C#N)cc1 (racemic) [Example 92B, (±)-4-(3-(2-((2R,3aS,5R,6aS)-Hexahydro-4H-2,5-methanofuro[3,2-b]pyrrol-4-yl)acetyl)-2,5-dimethyl-1H-pyrrol-1-yl)benzonitrile] and Cc1c(C(=O)CN2C3CCC2[C@@H](O)C3)cc(Cl)n1-c1ccc(C#N)cc1 (mixture of isomers) [Example 96B, (±)-4-(5-Chloro-3-(2-((2R)-2-hydroxy-7-azabicyclo[2.2.1]heptan-7-yl)acetyl)-2-methyl-1H-pyrrol-1-yl)benzonitrile] fall in the same range of IC50: 50 to 500 nM for the first, 50 to 500 nM for the second.

Compared with Cc1cc(C(=O)CN2C3CCC2[C@@H](O)C3)c(C)n1-c1cc(F)c(C#N)c(F)c1 (mixture of isomers) [Example 94B, (±)-2,6-Difluoro-4-(3-(2-((2R)-2-hydroxy-7-azabicyclo[2.2.1]heptan-7-yl)acetyl)-2,5-dimethyl-1H-pyrrol-1-yl)benzonitrile], Cc1c(C#N)c(C(=O)CN2C3CCC2[C@@H](O)C3)c(C)n1-c1ccc(C#N)cc1 (mixture of isomers) [Example 95B, (±)-1-(4-Cyanophenyl)-4-(2-((2R)-2-hydroxy-7-azabicyclo[2.2.1]heptan-7-yl)acetyl)-2,5-dimethyl-1H-pyrrole-3-carbonitrile] is higher in IC50: 50 to 500 nM for the first, greater than 500 nM for the second.

Cc1c(C(=O)CN2C3CCC2[C@@H](O)C3)c(Cl)c(Cl)n1-c1ccc(C#N)cc1 (mixture of isomers) [Example 97B, (±)-4-(2,3-Dichloro-4-(2-((2R)-2-hydroxy-7-azabicyclo[2.2.1]heptan-7-yl)acetyl)-5-methyl-1H-pyrrol-1-yl)benzonitrile] showed an IC50 of 50 to 500 nM.

Reference: patent publication US11560385B2, “Proteasome activity enhancing compounds” (Proteostasis Therapeutics, Inc., priority 2018, dated 2023)
